According to publication PMC3433420 (PLoS ONE, 2012):
Like-named read-outs stand apart in the source and are kept apart here. Residues, ends and D or L forms follow the SMILES beside them.

Experiments:
LCK SH2 domain = biological target: T1, LCK SH2 domain (Homo sapiens, UniProt P06239); test: FP saturation binding assay; settings: Protein LCK; FP saturation binding, high-confidence ErbB interactions; mean over replicate hits
T1 construct: 93 SH2 and 2 PTB domain-containing constructs; 6X His; thioredoxin; made in house; host or cells: E. coli BL21(DE3)pLysS
In short: (§1)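 KD values come from least-squares fits of fluorescence polarization (ex 530, em 555 nm), corrected for thioredoxin nonspecific binding and plate baseline, with outliers pruned. Fixed 10 nM labeled peptide met a 0.002–10 µM protein series for 20 min at room temperature in HEPES/KCl/Tween/DTT buffer, pH 7.8.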

[1] = biological target: T2, RASA1-NC tandem SH2 domains (Homo sapiens, UniProt P20936); test: FP saturation binding assay; settings: Protein RASA1-NC; FP saturation binding, high-confidence ErbB interactions; mean over replicate hits
T2 construct: the tandem protein was included in our analysis with all internal amino acids linking the domains; 6X His; thioredoxin; made in house; host or cells: E. coli BL21(DE3)pLysS
T2 sequence (P20936 181-441 limits assumed): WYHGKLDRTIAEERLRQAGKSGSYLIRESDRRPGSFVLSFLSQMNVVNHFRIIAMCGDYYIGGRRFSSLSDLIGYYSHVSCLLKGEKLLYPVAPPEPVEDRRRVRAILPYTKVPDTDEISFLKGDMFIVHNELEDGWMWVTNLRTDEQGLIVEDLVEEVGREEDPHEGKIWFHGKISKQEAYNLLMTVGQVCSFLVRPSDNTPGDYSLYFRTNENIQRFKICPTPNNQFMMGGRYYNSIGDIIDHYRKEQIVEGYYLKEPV
In short: as §1

YES1 SH2 domain = biological target: T3, YES1 SH2 domain (Homo sapiens, UniProt P07947); test: FP saturation binding assay; settings: Protein YES1; FP saturation binding, high-confidence ErbB interactions; mean over replicate hits
T3 construct: 6X His; thioredoxin; made in house; host or cells: BL21(DE3)pLysS E. coli
In short: as §1

PTPN11-N SH2 domain = biological target: T4, PTPN11-N SH2 domain (Homo sapiens, UniProt Q06124); test: FP saturation binding assay
T4 sequence (Q06124 6-102 limits assumed): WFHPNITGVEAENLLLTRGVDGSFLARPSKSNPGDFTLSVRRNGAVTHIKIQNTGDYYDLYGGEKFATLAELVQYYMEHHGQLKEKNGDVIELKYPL

RASA1-N SH2 domain = biological target: T5, RASA1-N SH2 domain (Homo sapiens, UniProt P20936); test: FP saturation binding assay
T5 sequence (P20936 181-272 limits assumed): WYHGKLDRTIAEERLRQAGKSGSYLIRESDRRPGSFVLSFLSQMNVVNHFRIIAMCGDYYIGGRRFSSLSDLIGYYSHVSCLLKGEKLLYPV

SH2D1B SH2 domain = biological target: T6, SH2D1B SH2 domain (Homo sapiens, UniProt O14796); test: FP saturation binding assay
T6 sequence (O14796 5-101 limits assumed): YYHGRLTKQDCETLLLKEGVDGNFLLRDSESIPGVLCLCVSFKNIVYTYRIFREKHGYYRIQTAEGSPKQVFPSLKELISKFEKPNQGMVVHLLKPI

SH2 and PTB domains = settings: ref Jones et al. 2006 / Kaushansky et al. Mol Biosys 2008 / Kaushansky et al. Chem and Biol 2008, cited from earlier work
Description: Supplement pone.0044471.s022.xlsx, sheet "Most recent PM interactions" | column: Kd || Supplement pone.0044471.s022.xlsx, sheet "All original PM interactions" | column: Kd

GRAP2 SH2 domain = biological target: T7, GRAP2 SH2 domain (Homo sapiens, UniProt O75791); test: FP saturation binding assay; settings: for share of the ErbB1 binding FE for GRAP2: free energy from FP KDs as percentage of total receptor recruitment (Figure S16)
T7 sequence (O75791 58-149 limits assumed): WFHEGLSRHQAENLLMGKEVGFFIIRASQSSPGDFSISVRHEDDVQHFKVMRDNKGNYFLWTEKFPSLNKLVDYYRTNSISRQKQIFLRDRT

GRB2 SH2 domain = GRB2 SH2 domain (Homo sapiens, UniProt P62993); test: FP saturation binding assay; settings: for share of the ErbB1 binding FE for GRB2: free energy from FP KDs as percentage of total receptor recruitment (Figure S16)
[2] = biological target: T8, PTPN11-NC tandem SH2 domains (Homo sapiens, UniProt Q06124); test: FP saturation binding assay
T8 sequence (Q06124 6-216 limits assumed): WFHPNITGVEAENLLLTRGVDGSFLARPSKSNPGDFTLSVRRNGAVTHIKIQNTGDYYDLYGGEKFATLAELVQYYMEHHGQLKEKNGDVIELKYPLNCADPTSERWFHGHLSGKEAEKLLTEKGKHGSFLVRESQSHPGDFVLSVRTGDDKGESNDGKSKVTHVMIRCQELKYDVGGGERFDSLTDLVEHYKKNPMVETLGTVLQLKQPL

HSH2D SH2 domain = biological target: T9, HSH2D SH2 domain (Homo sapiens, UniProt Q96JZ2); test: FP saturation binding assay
T9 sequence (Q96JZ2 34-125 limits assumed): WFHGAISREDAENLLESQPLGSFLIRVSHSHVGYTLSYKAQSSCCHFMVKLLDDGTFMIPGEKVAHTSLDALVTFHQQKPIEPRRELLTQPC

Sequence of GRB2 SH2 domain (P62993 60-152 limits assumed): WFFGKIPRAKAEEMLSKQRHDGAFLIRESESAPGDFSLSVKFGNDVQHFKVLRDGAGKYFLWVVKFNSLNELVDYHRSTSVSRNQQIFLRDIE
T3 sequence (P07947 158-255 limits assumed): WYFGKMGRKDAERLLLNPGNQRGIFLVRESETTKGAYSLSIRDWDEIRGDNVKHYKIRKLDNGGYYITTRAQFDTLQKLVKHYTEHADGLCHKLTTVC
T1 sequence (P06239 127-224 limits assumed): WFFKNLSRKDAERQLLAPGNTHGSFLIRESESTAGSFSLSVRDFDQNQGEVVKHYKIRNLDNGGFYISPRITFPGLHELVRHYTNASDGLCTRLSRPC

Compound | Kd (PTPN11-N SH2 domain) | Kd (SH2D1B SH2 domain) | Kd (SH2 and PTB domains; protein ABL2) | Kd (SH2 and PTB domains; protein GRB2) | Kd (SH2 and PTB domains; protein ITK) | Kd (SH2 and PTB domains; protein NCK2) | Kd (SH2 and PTB domains; protein PIK3R1-NC) | Kd (SH2 and PTB domains; protein PIK3R2-N) | Kd (SH2 and PTB domains; protein PIK3R2-NC) | Kd (SH2 and PTB domains; protein PIK3R3-N) | Kd (SH2 and PTB domains; protein PIK3R3-NC) | Kd (SH2 and PTB domains; protein RASA1-N) | Kd (SH2 and PTB domains; protein VAV2) | share of the ErbB1 binding FE for GRAP2 (GRAP2 SH2 domain) | share of the ErbB1 binding FE for GRB2 (GRB2 SH2 domain) | also measured
CSCC[C@H](NC(=O)[C@H](CC(C)C)NC(=O)[C@H](C)NC(=O)[C@H](CCCNC(=N)N)NC(=O)[C@H](Cc1ccc(OP(=O)(O)O)cc1)NC(=O)[C@H](Cc1ccccc1)NC(=O)[C@H](CC(N)=O)NC(=O)[C@H](CO)NC(=O)[C@@H](N)CC(=O)O)C(=O)N[C@@H](CC(=O)O)C(=O)N[C@@H](CCC(=O)O)C(=O)N[C@@H](CCC(=O)O)C(=O)N[C@@H](CC(=O)O)C(=O)O [ErbB1 998 13-mer] (HELM PEPTIDE1{D.S.N.F.[O=C([C@H](Cc1ccc(OP(=O)(O)O)cc1)N[*:1])[*:2]].R.A.L.M.D.E.E.D}$$$$V2.0) | 13100 nM | 3980 nM |  |  |  |  |  |  |  |  |  |  |  |  |  | Kd (LCK SH2 domain): 5790 nM; Kd [1]: 12600 nM; Kd (YES1 SH2 domain): 7050 nM; Kd (RASA1-N SH2 domain): 2850 nM
PVPEpYINQSVPKd [ErbB1 pY1092] |  |  | 150 nM | 200 nM | 220 nM | 1100 nM | 670 nM | 450 nM | 1410 nM | 510 nM | 1020 nM | 180 nM | 540 nM | 50% | 50% | Kd (SH2 and PTB domains; protein ABL1): 920 nM; Kd (SH2 and PTB domains; protein BLK): 300 nM; Kd (SH2 and PTB domains; protein GRB10): 1300 nM; Kd (SH2 and PTB domains; protein PIK3R1-N): 1080 nM; Kd (SH2 and PTB domains; protein PLCG2-NC): 1630 nM; Kd (SH2 and PTB domains; protein SRC): 1790 nM; Kd (SH2 and PTB domains; protein SYK-C): 1920 nM; Kd (SH2 and PTB domains; protein SYK-NC): 910 nM; Kd (SH2 and PTB domains; protein YES1): 340 nM
CC[C@H](C)[C@H](NC(=O)[C@@H]1CCCN1C(=O)[C@@H](NC(=O)[C@H](CCCCN)NC(=O)[C@H](C)NC(=O)[C@H](CCC(=O)O)NC(=O)[C@H](CO)NC(=O)[C@H](Cc1ccc(OP(=O)(O)O)cc1)NC(=O)[C@H](CC(C)C)NC(=O)[C@H](CC(C)C)NC(=O)[C@H](CCC(N)=O)NC(=O)[C@@H](N)CCCCN)[C@@H](C)O)C(=O)N[C@@H](CC(=O)O)C(=O)O [ErbB3 868 13-mer] (HELM PEPTIDE1{K.Q.L.L.[O=C([C@H](Cc1ccc(OP(=O)(O)O)cc1)N[*:1])[*:2]].S.E.A.K.T.P.I.D}$$$$V2.0) | 3610 nM | 4960 nM |  |  |  |  |  |  |  |  |  |  |  |  |  | Kd [2]: 3680 nM
CC(C)C[C@H](NC(=O)[C@@H]1CCCN1)C(=O)N[C@H](C(=O)N[C@@H](CS)C(=O)N[C@@H](CO)C(=O)N1CCC[C@H]1C(=O)N[C@@H](CCC(N)=O)C(=O)N1CCC[C@H]1C(=O)N[C@@H](CCC(=O)O)C(=O)N[C@@H](Cc1ccc(OP(=O)(O)O)cc1)C(=O)N[C@H](C(=O)N[C@@H](CC(N)=O)C(=O)N[C@@H](CCC(N)=O)C(=O)N1CCC[C@H]1C(=O)N[C@@H](CC(=O)O)C(=O)N[C@H](C(=O)N[C@@H](CCCNC(=N)N)C(=O)N[C@@H](CC(=O)O)C(=O)O)C(C)C)C(C)C)[C@@H](C)O [ErbB2 1139 18-mer] (HELM PEPTIDE1{P.L.T.C.S.P.Q.P.E.[O=C([C@H](Cc1ccc(OP(=O)(O)O)cc1)N[*:1])[*:2]].V.N.Q.P.D.V.R.D}$$$$V2.0) |  |  |  |  |  |  |  |  |  |  |  |  |  |  |  | Kd (GRAP2 SH2 domain): 560 nM; Kd (GRB2 SH2 domain): 1380 nM; Kd (HSH2D SH2 domain): 2820 nM
GNPEpYLNTVQPTd [ErbB1 pY1138] |  |  | 85 nM | 720 nM | 1760 nM | 330 nM | 1570 nM | 760 nM | 860 nM | 840 nM | 1690 nM | 390 nM | 370 nM | 50% | 50% | Kd (SH2 and PTB domains; protein SHC1-PTB): 130 nM; Kd (SH2 and PTB domains; protein ZAP70-NC): 1140 nM
